From patent US20060063736A1, “Compositions and methods for inhibiting mucin-type O-linked glycosylation” (priority 2004, published 2006)

Experiments:
Jurkat cells = assay: Annexin-V staining of Jurkat cells (apoptosis); format: cell-based, human; settings: 2 d treatment
Description: Jurkat cells were seeded at 250,000 cells/well (determined by Coulter cell counter) in 12-well polystyrene tissue culture plates in 1.0 mL of media and treated with various concentrations of 1-68A or 2-68A from 50 mM dimethyl sulfoxide (DMSO) stock solutions or doxorubicin or campothecin from 1 mM DMSO stock solutions. After 2 d, cells were harvested, washed twice with PBS buffer (PBS, pH 7.4, 0.1% FCS, 0.1% NaN3 w/v) and stained with FITC-HPA (1 μg/mL) or FITC-Con A (5 μg/mL with 1 mM CaCl2) in PBS, pH 7.4 in the dark for 1 h at 4° C. Cells were washed twice with PBS buffer, resuspended in 300 μL of PBS buffer and analyzed by flow cytometry (FacsCaliber, BD Instruments). Annexin-V staining was performed according to the manufacturer's protocols (Invitrogen).
To directly monitor ppGalNAcT activities in cells, Jurkat cells (human T-cell lymphoma), which are known to produce only the Tn-antigen (FIG. 1) as their O-linked glycans, were chosen. Piller et al. (1990) J. Biol. Chem. 265:9264-9271. Changes in Tn-antigen expression on the surface of Jurkat cells were monitored by HPA binding followed by flow cytometry analysis. Con A staining of N-linked glycans was used as a control for non-specific inhibition of protein glycosylation. Baenziger and Fiete (1979) J. Biol. Chem. 254:2400-2407.

rppGalNAcT-7 = target: T1, rppGalNAcT-7 (Rattus norvegicus, UniProt Q9R0C5); assay: Radiolabel capture assay, rppGalNAcT-7; format: biochemical; settings: MUC5AC glycopeptide
T1 construct: plasmids encoding truncated secreted ppGalNAcTs-1 to −5, -7, -10 and -11; made in house; host or cells: COS-7
T1 sequence (Q9R0C5 30-657 limits assumed): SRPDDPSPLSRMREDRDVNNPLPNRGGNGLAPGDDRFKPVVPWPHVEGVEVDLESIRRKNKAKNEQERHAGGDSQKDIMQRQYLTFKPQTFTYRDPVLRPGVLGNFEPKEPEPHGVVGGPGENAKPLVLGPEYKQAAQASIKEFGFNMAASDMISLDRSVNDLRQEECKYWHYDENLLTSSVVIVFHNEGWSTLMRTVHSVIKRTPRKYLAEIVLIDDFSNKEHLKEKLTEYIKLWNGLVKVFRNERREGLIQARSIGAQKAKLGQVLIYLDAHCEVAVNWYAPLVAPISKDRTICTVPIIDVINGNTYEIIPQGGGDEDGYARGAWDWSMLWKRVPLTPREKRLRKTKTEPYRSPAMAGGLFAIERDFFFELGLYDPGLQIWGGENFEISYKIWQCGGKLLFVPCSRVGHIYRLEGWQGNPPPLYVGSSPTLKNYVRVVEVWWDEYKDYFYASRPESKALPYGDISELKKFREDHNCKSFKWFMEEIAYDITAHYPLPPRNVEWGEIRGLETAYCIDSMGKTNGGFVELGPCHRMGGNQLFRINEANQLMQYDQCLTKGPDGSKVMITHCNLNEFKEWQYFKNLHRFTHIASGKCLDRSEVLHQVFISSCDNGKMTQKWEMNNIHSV
Description: (§1) Radiolabel capture assays using ^14C-labeled UDP-GalNAc were performed as previously described with various concentrations of 1-68A or 2-68A in 2% DMSO. Ten Hagen et al. (2001) J. Biol. Chem. 276:17395-17404.
(§2) Table 1. IC50 values for 1-68A and 2-68A with ppGalNAcTs-1 to −5, -7, -10, -11, β1-4GalT and α1-3GalT. The requirement of glycopeptides as substrates for ppGalNAcT-7 and -10 precluded the use of the ELLA, as both the substrate and product bind HPA-HRP. Thus, the radiolabel capture assay was employed to measure the IC50 values of 1-68A and 2-68A with ppGalNAcT-7 and -10 using MUC5AC (GTTPSPVPTTSTTSAP; SEQ ID NO:15) glycopeptide, previously shown to be substrate for both enzymes. Ten Hagen et al. (1999) J. Biol. Chem. 274:27867-27874; and Ten Hagen et al. (2001) J. Biol. Chem. 276:17395-17404. IC50 values of 1-68A and 2-68A with ppGalNAcT-5 were performed with α-FLAG purified enzyme and radiolabel capture assay, due to low activity and stability of the crude enzyme. m=murine, r=rattus.

rppGalNAcT-10 = target: T2, rppGalNAcT-10 (Rattus norvegicus, UniProt Q925R7); assay: Radiolabel capture assay, rppGalNAcT-10; format: biochemical; settings: MUC5AC glycopeptide
T2 construct: plasmids encoding truncated secreted ppGalNAcTs-1 to −5, -7, -10 and -11; made in house; host or cells: COS-7
T2 sequence (Q925R7 32-603 limits assumed): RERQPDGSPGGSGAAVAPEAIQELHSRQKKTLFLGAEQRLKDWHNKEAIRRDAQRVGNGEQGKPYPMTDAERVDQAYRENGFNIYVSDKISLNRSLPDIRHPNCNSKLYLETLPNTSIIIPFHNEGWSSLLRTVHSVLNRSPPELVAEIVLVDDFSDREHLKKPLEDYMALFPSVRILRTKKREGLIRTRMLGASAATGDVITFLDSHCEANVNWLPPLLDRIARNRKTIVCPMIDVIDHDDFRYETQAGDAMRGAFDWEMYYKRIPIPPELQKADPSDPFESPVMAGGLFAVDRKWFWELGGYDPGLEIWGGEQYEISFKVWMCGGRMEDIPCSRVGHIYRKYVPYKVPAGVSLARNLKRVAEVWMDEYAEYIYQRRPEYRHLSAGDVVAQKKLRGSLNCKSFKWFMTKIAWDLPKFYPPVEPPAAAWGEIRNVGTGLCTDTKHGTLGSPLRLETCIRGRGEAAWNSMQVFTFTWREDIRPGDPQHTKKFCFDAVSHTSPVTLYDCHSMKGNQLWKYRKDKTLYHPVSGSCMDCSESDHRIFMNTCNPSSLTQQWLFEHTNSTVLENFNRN
Description: as §1, §2

O=c1ccn([C@@H]2O[C@H](CON=Cc3ccc(O)c(O)c3O)[C@@H](O)[C@H]2O)c(=O)[nH]1 [1-68A]
Annexin-V staining (induction of apoptosis) (Jurkat cells): confirmed the induction of apoptosis | IC50 (rppGalNAcT-7): 22 ± 2 µM | IC50 (rppGalNAcT-10): 7 ± 1 µM

O=C(CON=Cc1ccc(O)c(O)c1O)NC[C@H]1O[C@@H](n2ccc(=O)[nH]c2=O)[C@H](O)[C@@H]1O [2-68A]
Annexin-V staining (induction of apoptosis) (Jurkat cells): confirmed the induction of apoptosis | IC50 (rppGalNAcT-7): 27 ± 2 µM | IC50 (rppGalNAcT-10): 6 ± 1 µM
